The source made the active and inactive calls. How the calls were made is not given here.
Test system: Ga16-expressing cells, calcium fluorescence, agonist counterscreen
Assay: nonselective Ga16 agonists, potency, late-stage follow-up, counter-screen for TAAR1 antagonist project, cell-based, fluorescence, dose response (AID 743236)

For Cc1nn(Cc2c(F)c(F)c(F)c(F)c2F)c(C)c1NC(=O)c1ccc(COc2ccccc2Cl)cc1, the EC50 was > 29.9 µM (inactive).
Cc1ccc(CSCC(=O)Nc2cc(S(=O)(=O)N3CCOCC3)ccc2OCC(F)(F)F)cc1 was tested, and the EC50 was > 29.9 µM (inactive).
CC(=O)c1ccc(NC(=O)c2ccc(COc3ccccc3[N+](=O)[O-])o2)cc1 was tested, and the EC50 was > 29.9 µM (inactive).
Cc1coc(NC(=O)CSc2nc(-c3ccc(Cl)cc3)cc(C(F)(F)F)c2C#N)n1 was tested, and the EC50 was > 29.9 µM (inactive).
In the case of CCCCC(=O)Nc1ccc(C(=O)Nc2ccc(S(=O)(=O)N3CCCC3)cc2)cc1, the EC50 is reported as > 29.9 µM (inactive).
For COc1cccc(-c2nn(-c3ccccc3)cc2C(=O)Nc2nccs2)c1, the EC50 was > 29.9 µM (inactive).
In the case of O=C(NCCn1cc(SCc2ccccc2F)c2ccccc21)c1c(F)cccc1F, the EC50 is reported as > 29.9 µM (inactive).
For COc1cc(NC(=O)c2cc3ccccc3o2)c(OC)cc1Cl, the EC50 was > 29.9 µM (inactive).
For Cc1cccc(C(C#N)c2nc3ccccc3nc2C(F)(F)F)c1 (centres undefined), the EC50 was > 29.9 µM (inactive).
